Reference: publication PMC6081452, “Downstream Products are Potent Inhibitors of the Heparan Sulfate 2-O-Sulfotransferase” (Scientific Reports, 2018)
“Also recorded” adds a separate entry of the source.

Assays:
[1] = molecular target: T1, non-glyc-HS2ST (non-glycosylated chicken HS2ST), WT (Gallus gallus, UniProt Q76KB1); assay: BLI equilibrium binding, non-glyc-HS2ST WT; conditions: BLI saturation binding curves, biotin-PEG4-linked hexasaccharide on sensor, n = 3, ± standard error of fit; — = response too weak to fit
T1 construct: made in house; host or cells: E. coli Origami B (DE3)
T1 sequence (Q76KB1 69-356 limits assumed): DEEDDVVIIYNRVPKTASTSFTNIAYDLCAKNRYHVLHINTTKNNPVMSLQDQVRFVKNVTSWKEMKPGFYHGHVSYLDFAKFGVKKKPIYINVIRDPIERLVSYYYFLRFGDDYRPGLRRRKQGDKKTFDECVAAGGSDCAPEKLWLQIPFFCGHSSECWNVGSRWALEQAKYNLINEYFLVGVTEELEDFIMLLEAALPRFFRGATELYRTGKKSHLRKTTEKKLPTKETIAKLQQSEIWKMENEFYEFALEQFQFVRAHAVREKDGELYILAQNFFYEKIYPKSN
Source text: (§1) HS-protein binding studies often utilize biologically-derived oligosaccharides of heterogeneous length and sulfation[34],[35]; however, the synthesis of oligosaccharides with defined length and specific sulfation patterns has recently become possible. We employed biolayer interferometry (BLI) to determine equilibrium surface binding constants (KD) for HS2ST with synthetic HS hexasaccharides (Fig. 1 and Supplementary Table 1). The HS compounds were attached to the BLI biosensor surface to conserve sample and to ensure a significant signal upon protein binding. The HS compounds contained a biotinylated PEG4 linker at the reducing terminus, enhancing the likelihood of a consistent presentation of the linear glycan on the sensor surface, in contrast to immobilizations via intra-chain modifications.
Binding constants were collected for two isoforms of the enzyme; a glycosylated human variant (glyc-HS2ST) expressed in mammalian cell lines, and a highly homologous (96% identity) non-glycosylated chicken isoform expressed in E. coli (non-glyc-HS2ST). […] Thus, the enhanced ligand affinity seen in HS2ST was unexpected and may relate to the specific position of the glycosylation site (N108)[41].
The chicken HS2ST-Maltose Binding Protein (MBP) fusion protein was expressed and purified according to previous studies. The fusion protein was transformed into E. coli Origami B (DE3) cells, cultured at 37 °C until OD600 reached 0.5, then induced with isopropyl-β-D-thiogalactopyranoside and allowed to grow overnight at 20 °C. Cells were sonicated, followed by a two-step purification procedure. Whole-cell supernatant was passed through an amylose column with Tris buffer (25 mM Tris, 500 mM NaCl, pH 7.5). An elution buffer consisted of Tris Buffer with 40 mM Maltose. The amylose column eluent was concentrated and loaded on a Superdex 200 Increase 10/300 GL with PBS buffer (10 mM sodium phosphate, 150 mM NaCl, pH 7.8) to separate trimeric protein from aggregate and independent MBP (Supplementary Fig. 4). All reported mutations formed homotrimeric complexes according to the SEC profiles, including the negative control (NC = R189A/R80E/R184E). Protein concentration was assessed via UV at 280 nm (MW of trimer ~210 KDa, extinction coefficient ~119,000 M^−1 cm^−1 according to ExPASy ProtParam webtool[56]). The trimeric protein preparation was adjusted to 5% glycerol and stored at −20 °C until use. Additional non-glyc-HS2ST constructs were created with the Q5® Mutagenesis kit (New England Biolabs Inc.; cat. # E0554S) and sequenced at the Georgia Genomics Facility at the University of Georgia.
The Octet® RED96 system (FortéBio Inc.) was employed to detect the affinity of the enzymes for specific HS targets. Due to the small size of the glycan and the deep HS2ST binding cavity, the glycan and protein were treated as ligand and analyte, respectively. Varyingly sulfated HS fragments conjugated to biotin linkers were purchased from Glycan Therapeutics Inc. with purities greater than 93% according to HPLC (sequences located in Supplementary Table 1). The glycans were immobilized onto streptavidin (SA) labeled biosensors (FortéBio; cat. #18–5019) at 0.5 µg/mL. Experiments were performed at 25 °C in PBS Buffer (10 mM sodium phosphate, 150 mM NaCl, pH 7.8) with a final concentration of 1X Pall Kinetics buffer (FortéBio Inc; cat. #18–1092). Fresh biosensors and protein samples were used for each measurement (no regeneration step). […]

[2] = molecular target: T2, glyc-HS2ST (glycosylated human HS2ST), WT (Homo sapiens, UniProt Q7LGA3); assay: BLI equilibrium binding, glyc-HS2ST WT; conditions: BLI saturation binding curves, biotin-PEG4-linked hexasaccharide immobilised on sensor, n = 3, ± standard error of fit, 25 °C, PBS pH 7.8
T2 construct: the human HS2ST catalytic domain region comprising of 328 amino acid residues; His8 (N, cleaved yes); AviTag (N, cleaved yes); superfolder GFP (N, cleaved yes); made in house; host or cells: HEK293-F (transient transfection, secreted)
T2 sequence (Q7LGA3 29-356 limits assumed): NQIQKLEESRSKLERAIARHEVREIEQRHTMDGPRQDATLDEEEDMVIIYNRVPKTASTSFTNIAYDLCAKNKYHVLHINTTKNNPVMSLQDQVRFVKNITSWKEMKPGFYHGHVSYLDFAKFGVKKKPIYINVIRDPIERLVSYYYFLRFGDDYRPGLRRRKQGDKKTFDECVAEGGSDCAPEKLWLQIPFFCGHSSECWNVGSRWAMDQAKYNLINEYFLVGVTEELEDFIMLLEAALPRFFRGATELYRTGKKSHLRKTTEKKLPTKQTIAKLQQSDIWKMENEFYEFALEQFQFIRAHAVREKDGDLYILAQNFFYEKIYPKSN
Source text: as §1, with “modifications. […]” for “modifications.”
An expression construct was generated encoding the truncated catalytic domain of human HS2ST as an NH2-terminal fusion protein in the pGEn2 expression vector essentially as described in prior studies. […] The recombinant human HS2ST was expressed as a soluble secreted protein by transient transfection of suspension culture HEK293-F cells (FreeStyle^TM 293-Fcells, Thermo Fisher Scientific, Waltham MA) maintained at 0.5–3.0 × 10^6 cells/ml in a humidified CO2 platform shaker incubator at 37 °C with 55% humidity. […]

Equilibrium KD, WT glyc-HS2ST [2]: too weak to measure
Substance: GlcNS-GlcA-GlcNS-IdoA-GlcNS-GlcA~ [Compound 1]
Equilibrium KD, WT non-glyc-HS2ST [1]: too weak to measure; also recorded: insufficient for KD determination
